# Assay results taken from paper PMC7031696 (Cell chemical biology, 2019).
# Like-named read-outs stand apart in the source and are kept apart here.
# Experiments:
# [1] = tested on: Plasmodium falciparum 3D7-A10 parasites; experiment: Stage specificity assay (8-h exposure of synchronized stages, IC50^8h); assay type: cell-based; details: Plasmodium falciparum
# [2] = tested on: asynchronous 3D7-A10 parasite cultures; experiment: Standard 72-h exposure asexual blood stage susceptibility assay (IC50^72h); assay type: cell-based, Plasmodium falciparum; details: Plasmodium falciparum, 3D7, 72 h, read-out: Overall (72hr assay) Mean IC50 (IC50^72h)
# [3] = tested on: 3D7-MR4 trophozoite parasite-infected RBCs; experiment: Metabolomic profiling (hydrophilic metabolite changes, UHPLC-MS); assay type: cell-based, Plasmodium falciparum
smiles,measurement,setting,value
COc1ccc(C2c3ccc4ccccc4c3Oc3ncn(CCCN(C)C)c(=N)c32)cc1 (centres unmarked) [MMV667491],IC50,"[1]; 3D7, read-out: Early rings Mean IC50 (IC50^8h), 8-h exposure 0–8 hr, 3D7-A10, survival at 60 h",2260 nM
same,IC50,"[1]; 3D7, read-out: Early trophozoites Mean IC50 (IC50^8h), 8-h exposure 16–24 hr, 3D7-A10, survival at 60 h",521 nM
same,IC50,"[1]; 3D7, read-out: Late rings Mean IC50 (IC50^8h), 8-h exposure 8–16 hr, 3D7-A10, survival at 60 h",1270 nM
same,IC50,"[1]; 3D7, read-out: Late trophozoites Mean IC50 (IC50^8h), 8-h exposure 24–32 hr, 3D7-A10, survival at 60 h",731 nM
same,IC50,"[1]; 3D7, read-out: Schizonts Mean IC50 (IC50^8h), 8-h exposure 32–40 hr, 3D7-A10, survival at 60 h",842 nM
same,IC50,[2],243 nM
same,peptide levels (hemoglobin catabolism signature),"[3]; 10 × IC50^72h, 2.5 hr, trophozoites",decreased peptide levels
same,Log2(fold changes) 3-phosphoglycerate,"[3]; metabolite 3-phosphoglycerate, log2 fold change",0.2589
same,Log2(fold changes) 4-Pyridoxic acid,"[3]; metabolite 4-Pyridoxic acid, log2 fold change",0.1545
same,Log2(fold changes) 4-aminobutyrate,"[3]; metabolite 4-aminobutyrate, log2 fold change",-0.0143
same,Log2(fold changes) 4-phosphopantetheine,"[3]; metabolite 4-phosphopantetheine, log2 fold change",0.0000
same,Log2(fold changes) 4-phosphopantothenate,"[3]; metabolite 4-phosphopantothenate, log2 fold change",-0.5959
same,Log2(fold changes) 5-aminopentanoic acid,"[3]; metabolite 5-aminopentanoic acid, log2 fold change",0.0000
same,Log2(fold changes) 5-methyl-THF,"[3]; metabolite 5-methyl-THF, log2 fold change",0.0000
same,Log2(fold changes) 5-phosphoribosyl-1-pyrophosphate,"[3]; metabolite 5-phosphoribosyl-1-pyrophosphate, log2 fold change",0.0000
same,Log2(fold changes) 6-phospho-D-gluconate,"[3]; metabolite 6-phospho-D-gluconate, log2 fold change",-0.3071
same,Log2(fold change) HVDD,[3]; metabolite HVDD,-3.1004
same,Log2(fold change) Hydroxyisocaproic acid,[3]; metabolite Hydroxyisocaproic acid,0.0000
same,Log2(fold change) IDP,[3]; metabolite IDP,0.0000
same,Log2(fold change) IMP,[3]; metabolite IMP,-0.4029
same,Log2(fold change) Inositol,[3]; metabolite Inositol,0.0000
same,Log2(fold change) Isopentyl-PP,[3]; metabolite Isopentyl-PP,-0.4741
same,Log2(fold change) L-arginino-succinate,[3]; metabolite L-arginino-succinate,1.0249
same,Log2(fold change) LD,[3]; metabolite LD,0.5039
same,Log2(fold change) Myristoyl/tetradecanoyl-CoA,[3]; metabolite Myristoyl/tetradecanoyl-CoA,0.0000
same,Log2(fold change) N-Acetyl-L-alanine,[3]; metabolite N-Acetyl-L-alanine,-0.5066
same,Log2(fold change) N-acetyl-L-ornithine,[3]; metabolite N-acetyl-L-ornithine,-0.0359
same,Log2(fold change) N-acetyl-glucosamine-1/6-phosphate,[3]; metabolite N-acetyl-glucosamine-1/6-phosphate,-0.2210
same,Log2(fold change) N-acetyl-glutamate,[3]; metabolite N-acetyl-glutamate,-0.3035
same,Log2(fold change) N-acetyl-glutamine,[3]; metabolite N-acetyl-glutamine,2.2691
same,Log2(fold change) N-carbamoyl-L-aspartate,[3]; metabolite N-carbamoyl-L-aspartate,-0.9439
same,Log2(fold change) NAD+,[3]; metabolite NAD+,-0.1377
same,Log2(fold change) NADH,[3]; metabolite NADH,0.2776
same,Log2(fold change) NADP+,[3]; metabolite NADP+,0.1452
same,Log2(fold change) NADPH,[3]; metabolite NADPH,0.1884
same,Log2(fold change) O-acetyl-L-serine,[3]; metabolite O-acetyl-L-serine,-0.0049
same,Log2(fold change) Octoluse 8/1P,[3]; metabolite Octoluse 8/1P,0.3908
same,Log2(fold change) Octoluse Bisphosphate,[3]; metabolite Octoluse Bisphosphate,1.4853
same,Log2(fold change) PD,[3]; metabolite PD,-2.5358
same,Log2(fold change) PE,[3]; metabolite PE,-0.3826
same,Log2(fold change) PEE,[3]; metabolite PEE,-0.0417
same,Log2(fold change) PEEK,[3]; metabolite PEEK,0.3987
same,Log2(fold change) PVNF,[3]; metabolite PVNF,-3.7257
same,Log2(fold change) Pyroglutamic acid,[3]; metabolite Pyroglutamic acid,-0.2992
same,Log2(fold change) Pyrophosphate,[3]; metabolite Pyrophosphate,0.0000
same,Log2(fold change) Ribose-5-phosphate,[3]; metabolite Ribose-5-phosphate,-0.2620
same,Log2(fold change) S-adenosyl-L-homocysteine,[3]; metabolite S-adenosyl-L-homocysteine,0.0103
same,Log2(fold change) S-adenosyl-L-methioninamine,[3]; metabolite S-adenosyl-L-methioninamine,-2.2715
same,Log2(fold change) S-adenosyl-L-methionine,[3]; metabolite S-adenosyl-L-methionine,0.0000
same,Log2(fold change) S-methyl-5'-thioadenosine,[3]; metabolite S-methyl-5'-thioadenosine,1.0471
same,Log2(fold change) SD,[3]; metabolite SD,-1.2290
same,Log2(fold change) SDL,[3]; metabolite SDL,0.0000
same,Log2(fold change) SID,[3]; metabolite SID,-0.4398
same,Log2(fold change) Sedoheptulose bisphosphate,[3]; metabolite Sedoheptulose bisphosphate,1.3696
same,Log2(fold change) Thiamine pyrophosphate,[3]; metabolite Thiamine pyrophosphate,-0.0845
same,Log2(fold changes) UDP-D-glucose,"[3]; metabolite UDP-D-glucose, log2 fold change",0.2535
same,Log2(fold changes) UDP-D-glucuronate,"[3]; metabolite UDP-D-glucuronate, log2 fold change",0.0929
same,Log2(fold changes) UDP-N-acetyl-glucosamine,"[3]; metabolite UDP-N-acetyl-glucosamine, log2 fold change",-0.0110
same,Log2(fold changes) UDP,"[3]; metabolite UDP, log2 fold change",-0.5582
same,Log2(fold changes) UMP,"[3]; metabolite UMP, log2 fold change",-1.0091
same,Log2(fold changes) UTP,"[3]; metabolite UTP, log2 fold change",0.0000
same,Log2(fold change) hydroxyphenylpyruvate,[3]; metabolite hydroxyphenylpyruvate,0.0000
same,Log2(fold change) hydroxyproline/Aminolevulinate,[3]; metabolite hydroxyproline/Aminolevulinate,-0.0313
same,Log2(fold change) hypoxanthine,[3]; metabolite hypoxanthine,0.1226
same,Log2(fold change) indole,[3]; metabolite indole,0.0000
same,Log2(fold change) inosine,[3]; metabolite inosine,0.0977
same,Log2(fold change) isoleucine,[3]; metabolite isoleucine,0.0000
same,Log2(fold change) lactate,[3]; metabolite lactate,-0.2958
same,Log2(fold change) leucine,[3]; metabolite leucine,0.0000
same,Log2(fold change) lysine,[3]; metabolite lysine,-0.5255
same,Log2(fold change) malate,[3]; metabolite malate,-0.2587
same,Log2(fold change) maleic acid,[3]; metabolite maleic acid,-0.3091
same,Log2(fold change) methionine,[3]; metabolite methionine,0.3155
same,Log2(fold change) myo-inositol,[3]; metabolite myo-inositol,-0.2765
same,Log2(fold change) nicotinamide mononucleotide,[3]; metabolite nicotinamide mononucleotide,-0.3204
same,Log2(fold change) nicotinate,[3]; metabolite nicotinate,-0.1938
same,Log2(fold change) ornithine,[3]; metabolite ornithine,0.1211
same,Log2(fold change) orotate,[3]; metabolite orotate,-0.0965
same,Log2(fold change) orotidine-5'-phosphate,[3]; metabolite orotidine-5'-phosphate,-2.6245
same,Log2(fold change) oxaloacetate,[3]; metabolite oxaloacetate,-0.0776
same,Log2(fold change) p-aminobenzoate,[3]; metabolite p-aminobenzoate,0.0000
same,Log2(fold change) p-hydroxybenzoate,[3]; metabolite p-hydroxybenzoate,0.0000
same,Log2(fold change) pantothenate,[3]; metabolite pantothenate,0.1007
same,Log2(fold change) phenylalanine,[3]; metabolite phenylalanine,-0.2555
same,Log2(fold change) phenylpyruvate,[3]; metabolite phenylpyruvate,0.0000
same,Log2(fold change) phosphoenolpyruvate,[3]; metabolite phosphoenolpyruvate,0.7161
same,Log2(fold change) prephenate,[3]; metabolite prephenate,-0.9019
same,Log2(fold change) proline,[3]; metabolite proline,-0.2246
same,Log2(fold change) pyridoxine,[3]; metabolite pyridoxine,-0.1003
same,Log2(fold change) pyruvate,[3]; metabolite pyruvate,-0.3220
same,Log2(fold change) riboflavin,[3]; metabolite riboflavin,0.6538
same,Log2(fold change) ribose,[3]; metabolite ribose,0.3285
same,Log2(fold change) ribose-phosphate,[3]; metabolite ribose-phosphate,-0.4272
same,Log2(fold change) ribulose-5-phosphate,[3]; metabolite ribulose-5-phosphate,-0.4317
same,Log2(fold change) serine,[3]; metabolite serine,0.1307
same,Log2(fold change) sn-glycerol-3-phosphate,[3]; metabolite sn-glycerol-3-phosphate,0.0813
same,Log2(fold change) succinate/Methylmalonic acid,[3]; metabolite succinate/Methylmalonic acid,-0.0916
same,Log2(fold change) succinyl-CoA/methylmalonyl-CoA,[3]; metabolite succinyl-CoA/methylmalonyl-CoA,0.0000
same,Log2(fold change) taurine,[3]; metabolite taurine,0.1233
same,Log2(fold change) thiamine,[3]; metabolite thiamine,-0.6378
same,Log2(fold change) threonine/homoserine,[3]; metabolite threonine/homoserine,-0.0132
same,Log2(fold change) thymidine,[3]; metabolite thymidine,0.0000
same,Log2(fold changes) thymine,"[3]; metabolite thymine, log2 fold change",0.0000
same,Log2(fold changes) trehalose-6-Phosphate,"[3]; metabolite trehalose-6-Phosphate, log2 fold change",0.0000
same,Log2(fold changes) tryptophan,"[3]; metabolite tryptophan, log2 fold change",-0.6838
same,Log2(fold changes) tyrosine,"[3]; metabolite tyrosine, log2 fold change",0.0515
same,Log2(fold changes) uridine,"[3]; metabolite uridine, log2 fold change",0.0000
